Data: ChEMBL document CHEMBL6120994, “Unravelling the potential of natural chelating agents in the control of Staphylococcus aureus and Pseudomonas aeruginosa biofilms” (Eur J Med Chem, 2025)
Activity calls are given as the source filed them. The calls are words filed in the database; no cut-off is given here.

Tests used:
[1] = system: Staphylococcus aureus; test: Antibacterial activity against Staphylococcus aureus CECT 976 assessed as inhibition of bacterial growth by measuring inhibition zone diameter at 1000 ug/ml incubated for 24 hrs in presence of tobramycin by disc diffusion method (reference value: 12.5 +/- 1.29 mm); format: functional; settings: read-out: DIZ
[2] = Metal chelating activity at iron(III) in chrome azurol sulphonate solution at 1000 ug/ml incubated for 30 mins by spectrophotometric analysis; settings: dose 1000.0 µg/ml
[3] = system: Staphylococcus aureus; test: Inhibition of virulence production in pre-established 24 hr-old Staphylococcus aureus CECT 976 biofilms assessed as diameter of lipases halo at 10XMTC measured after 48 hrs in presence of 1/2XMIC tobramycin (reference value: 11.5 to 12.3 mm); format: functional
[4] = system: Pseudomonas aeruginosa; test: Antibiotic adjuvant activity against Pseudomonas aeruginosa ATCC 10145 assessed as potentiation of ciprofloxacin-induced antibacterial activity by measuring fractional inhibitory concentration index (MIC) at 15.6 ug/ml measured after 24 hrs by checkerboard assay; format: functional; settings: dose 15.6 µg/ml
[5] = system: Staphylococcus aureus; test: Antibiofilm activity against Staphylococcus aureus CECT 976 assessed as reduction in biofilm cells culturability at 500 to 1000 ug/ml measured after 24 hrs by visual counting method; format: functional, organism-based; settings: dose 500-1000 µg/ml
[6] = system: Cell membrane; test: Disruption of membrane integrity in Staphylococcus aureus CECT 976 biofilm assessed as increase in PI uptake at 500 ug/ml measured after 24 hrs in presence of 1/8X to 1/2XMIC tobramycin by flow cytometry; format: subcellular; settings: dose 500.0 µg/ml
[7] = system: Staphylococcus aureus; test: Inhibition of virulence production in Staphylococcus aureus CECT 976 biofilms assessed as diameter of lipases halo at 1/2XMTC measured after 48 hrs (reference value: 11.5 to 13.3 mm); format: functional
[8] = system: Staphylococcus aureus; test: Antibiotic adjuvant activity against Staphylococcus aureus CECT 976 assessed as potentiation of tobramycin-induced antibiofilm activity by measuring reduction in biomass production at 500 ug/ml measured after 24 hrs in presence of tobramycin by crystal violet staining method; format: functional, organism-based; settings: dose 500.0 µg/ml
[9] = system: Pseudomonas aeruginosa; test: Antibacterial activity against Pseudomonas aeruginosa ATCC 10145 assessed as inhibition of bacterial growth by measuring inhibition zone diameter at 100 ug/ml incubated for 24 hrs in presence of gentamicin by disc diffusion method (reference value: 8.25 +/-0.5 mm); format: functional; settings: read-out: DIZ
[10] = system: Staphylococcus aureus; test: Inhibition of virulence production in pre-established 24 hr-old Staphylococcus aureus CECT 976 biofilms assessed as diameter of gelatinases halo at 10XMTC measured after 48 hrs in presence of 1/2XMIC tobramycin (reference value: 9.3 to 9.5 mm); format: functional
[11] = system: Staphylococcus aureus; test: Inhibition of virulence production in pre-established 24 hr-old Staphylococcus aureus CECT 976 biofilms assessed as diameter of lipases halo at 10XMTC measured after 48 hrs (reference value: 11.8 to 12 mm); format: functional
[12] = system: Pseudomonas aeruginosa; test: Antibiotic adjuvant activity against Pseudomonas aeruginosa ATCC 10145 assessed as potentiation of ciprofloxacin-induced antibacterial activity by measuring ciprofloxacin MIC at 15.6 ug/ml measured after 24 hrs by checkerboard assay (reference value: […] ug/ml); format: functional; settings: dose 15.6 µg/ml
[13] = system: Staphylococcus aureus; test: Inhibition of virulence production in pre-established 24 hr-old Staphylococcus aureus CECT 976 biofilms assessed as diameter of siderophores halo at 10XMTC measured after 48 hrs in presence of 1/4XMIC tobramycin (reference value: 11.5 +/-0.6 mm); format: functional
[14] = system: Pseudomonas aeruginosa; test: Antibiotic adjuvant activity against preestablished 24-hr old Pseudomonas aeruginosa ATCC 10145 assessed as potentiation of ciprofloxacin-induced antibiofilm activity by measuring reduction of CFU biofilm cells at 1000 ug/ml measured after 24 hrs in presence of 1/8XMIC ciprofloxacin by visual counting method; format: functional, organism-based; settings: dose 1000.0 µg/ml
[15] = system: Staphylococcus aureus; test: Inhibition of virulence production in Staphylococcus aureus CECT 976 biofilms assessed as diameter of siderophores halo at 1/2XMTC measured after 48 hrs in presence of 1/2XMIC tobramycin (reference value: 10.5 +/-0.6 mm); format: functional
[16] = system: Staphylococcus aureus; test: Inhibition of virulence production in pre-established 24 hr-old Staphylococcus aureus CECT 976 biofilms assessed as diameter of lipases halo at 10XMTC measured after 48 hrs in presence of 1XMIC tobramycin (reference value: 11.8 to 12.3 mm); format: functional
[17] = system: Staphylococcus aureus; test: Inhibition of virulence production in Staphylococcus aureus CECT 976 biofilms assessed as diameter of protease halo at 1/2XMTC measured after 72 hrs in presence of 1/8XMIC tobramycin (reference value: 12.5 to 13.3 mm); format: functional
[18] = system: Staphylococcus aureus; test: Inhibition of virulence production in Staphylococcus aureus CECT 976 biofilms assessed as diameter of siderophores halo at 1/2XMTC measured after 48 hrs in presence of 1/8XMIC tobramycin (reference value: 10.5 +/-0.6 mm); format: functional
[19] = system: Staphylococcus aureus; test: Antibiotic adjuvant activity against Staphylococcus aureus CECT 976 assessed as potentiation of tobramycin-induced antibacterial activity by measuring fractional inhibitory concentration index (MBC) at 62.5 ug/ml measured after 24 hrs by checkerboard assay; format: functional; settings: dose 62.5 µg/ml
[20] = system: Staphylococcus aureus; test: Antibacterial activity against Staphylococcus aureus CECT 976 assessed as inhibition of bacterial growth by measuring inhibition zone diameter at 1000 ug/ml incubated for 24 hrs in presence of ciprofloxacin by disc diffusion method (reference value: 29.25 +/- 0.96 mm); format: functional; settings: read-out: DIZ
[21] = Metal chelating activity at iron(III) in chrome azurol sulphonate solution assessed as absorption spectra peak around […] incubated for 30 mins by spectrophotometric analysis
[22] = system: Staphylococcus aureus; test: Antibiofilm activity against preestablished 24 hr-old Staphylococcus aureus CECT 976 assessed as reduction in metabolic activity of biofilm cells at 10XMTC by resazurin staining based fluorescence analysis; format: functional
[23] = system: Staphylococcus aureus; test: Inhibition of virulence production in Staphylococcus aureus CECT 976 biofilms assessed as diameter of lipases halo at 1XMTC measured after 48 hrs (reference value: 11.8 to 12.5 mm); format: functional
[24] = system: Staphylococcus aureus; test: Antibacterial activity against Staphylococcus aureus CECT 976 assessed as inhibition of bacterial growth by measuring inhibition zone diameter at 1000 ug/ml incubated for 24 hrs in presence of gentamicin by disc diffusion method (reference value: 12 +/- 1.63 mm); format: functional; settings: read-out: DIZ
[25] = system: Pseudomonas aeruginosa; test: Antibacterial activity against Pseudomonas aeruginosa ATCC 10145 assessed as inhibition of bacterial growth by measuring inhibition zone diameter at 100 ug/ml incubated for 24 hrs in presence of tobramycin by disc diffusion method (reference value: 13.25 +/-0.5 mm); format: functional; settings: read-out: DIZ
[26] = system: Staphylococcus aureus; test: Inhibition of virulence production in Staphylococcus aureus CECT 976 biofilms assessed as diameter of lipases halo at 1/2XMTC measured after 48 hrs in presence of 1/2XMIC tobramycin (reference value: 12.5 to 13.5 mm); format: functional
[27] = system: Staphylococcus aureus; test: Antibiofilm activity against preestablished 24 hr-old Staphylococcus aureus CECT 976 assessed as biomass removal at 1000 to 10000 ug/ml measured after 24 hrs by crystal violet staining method; format: functional; settings: dose 1000-10000 µg/ml, at 1000 to 10000 µg/mL

O=c1cc(CO)occ1O [KOJIC ACID]
zone of inhibition at 1000 µg/mL [1]: 13.2 mm
Activity [2]: 85%
Activity [3]: 2 mm
fractional inhibitory concentration index (FICI) [4]: 0.5
Activity [5]: inactive
Activity [6]: inactive
Activity [7]: 2.8 mm
Activity [8]: Active; Slight Increase Noted
zone of inhibition at 100 µg/mL [9]: 12 mm
Activity [10]: 0 mm
Activity [11]: 2.5 mm
MIC [12]: 16 µg/mL
Activity [13]: 10.3 mm
Activity [14]: inactive
Activity [15]: 9.75 mm
Activity [16]: 2 mm
Activity [17]: 0 mm
Activity [18]: 9 mm
fractional inhibitory concentration index (FICI) [19]: 0.3
zone of inhibition at 1000 µg/mL [20]: 30.8 mm
Activity [21]: Active
inhibition (INH) [22]: 80%
Activity [23]: 3.3 mm
zone of inhibition at 1000 µg/mL [24]: 9.5 mm
zone of inhibition at 100 µg/mL [25]: 17.2 mm
Activity [26]: 2.3 mm
inhibition (INH) [27]: 15%

Cc1occc(=O)c1O [MALTOL]
zone of inhibition at 1000 µg/mL [1]: 19 mm
Activity [2]: 90%
Activity [3]: 2.3 mm
fractional inhibitory concentration index (FICI) [4]: 0.5
Activity [5]: inactive
Activity [6]: inactive
Activity [7]: 3.5 mm
Activity [8]: Active; Slight Increase Noted
zone of inhibition at 100 µg/mL [9]: 11.8 mm
Activity [10]: 0 mm
Activity [11]: 2.5 mm
MIC [12]: 16 µg/mL
Activity [13]: 10.3 mm
Activity [14]: inactive
Activity [15]: 9.5 mm
Activity [16]: 2.3 mm
Activity [17]: 0 mm
Activity [18]: 10 mm
fractional inhibitory concentration index (FICI) [19]: 0.3
zone of inhibition at 1000 µg/mL [20]: 33 mm
Activity [21]: Active
inhibition (INH) [22]: 80%
Activity [23]: 3 mm
zone of inhibition at 1000 µg/mL [24]: 17.5 mm
zone of inhibition at 100 µg/mL [25]: 16.2 mm
Activity [26]: 2 mm
inhibition (INH) [27]: 15%
